≈ marks a conversion by molar mass, not a printed value. Read-outs that look alike come from different tables or passages of the source. Blank lines part the entries; values can stand above or below the molecule they belong to.
Experiments:
[1] = Activity of moxaverin HCl dissolved in pH-neutral PEG solution; conditions: pH-neutral diluted PEG solution
[2] = for pH: 26.6° C.
Procedure: Moxaverin hydrochloride was dissolved completely, as a pure substance, in increasing mass proportions (see Table 1), […], respectively (manufactured by Sigma, PEG 200 and 400, <1% H2O), while stirring constantly, […]

[3] = Direct dissolving of moxaverin HCl in 5-10% diluted PEG; assay type: physicochemical; conditions: 5-10% PEG 400 or PEG 200 in H2O or Tyrode's solution, 37° C.
Procedure: In comparison, an attempt was made to dissolve moxaverin HCl in 5-10% PEG diluted with H2O and Tyrode's solution, respectively. (In other words, analogous to the series of experiments shown in the table, 15 to 40 mg moxaverin HCl were added to 10 ml 10% PEG 400, or 7.5 to 20 mg moxaverin HCl were added to 10 ml 5% PEG 400, and stirred at 37° C.) However, directly dissolving the pure substance in diluted PEG was not possible either in diluted PEG 400 or in diluted PEG 200.

[4] = Solubility in water / aqueous solution; assay type: physicochemical
Procedure: Also, this low concentration of moxaverin would be difficult to compensate by means of the administration of larger volumes. In addition, the stability of active substances in highly concentrated solutions is generally greater than in solutions having a low concentration. In the form of the free base, moxaverin is practically insoluble in water (<1 mg/ml).

[5] = cited from earlier work
[6] = Solubility of moxaverin hydrochloride in undiluted PEG 200 / PEG 400 at 37° C., pH 7.4 adjustment and dilution with Tyrode's solution; assay type: physicochemical
Procedure: Moxaverin hydrochloride was dissolved completely, as a pure substance, in increasing mass proportions (see Table 1), in 10 ml commercially available polyethylene glycol having an average molecular weight of 200 and 400, respectively (manufactured by Sigma, PEG 200 and 400, <1% H2O), while stirring constantly, at a temperature of 37° C.
Subsequently, the dissolved moxaverin was converted to an aqueous solution, while stirring constantly, by adding 1×Tyrode's solution with a normal extracellular electrolyte composition.
To determine the pH dependence of the solution behavior of moxaverin hydrochloride, a pH of 7.4 was adjusted in another series of experiments, after complete dissolution in undiluted PEG, by adding NaOH.

[7] = after oral administration; cited from earlier work
[8] = Stability of pH-neutral aqueous PEG solutions of moxaverin; assay type: physicochemical
[9] = tested on: smooth muscle cells; conditions: more effective than papaverin; cited from earlier work
[10] = tested on: patients having erectile dysfunction; assay: Patient study: intracavernous injection of aqueous solutions of moxaverin; assay type: in vivo, human
Procedure: Twenty patients having a completely clarified genesis of erectile dysfunction were given intracavernous injections (injection therapy of erectile tissue) of aqueous solutions of moxaverin. In this connection, 1 ml of an injection solution containing 1 to 10 mg moxaverin hydrochloride per ml end volume, in Tyrode's buffer, at a pH=7.4 and an end concentration of 2.5% PEG 400 (in the case of 1 mg moxaverin HCl/ml) up to 25% PEG 400 (in the case of 10 mg moxaverin HCl/ml) were administered per individual injection.

[11] = 150 mg in 10 ml PEG 200, 37° C.
[12] = 150 mg in 10 ml PEG 400, 37° C.
[13] = 200 mg in 10 ml PEG 200, 37° C.
[14] = 200 mg in 10 ml PEG 400, 37° C.
[15] = 250 mg in 10 ml PEG 200, 37° C.
[16] = 250 mg in 10 ml PEG 400, 37° C.
[17] = 300 mg in 10 ml PEG 200, 37° C.
[18] = 300 mg in 10 ml PEG 400, 37° C.
[19] = 350 mg in 10 ml PEG 200, 37° C.
[20] = 350 mg in 10 ml PEG 400, 37° C.
[21] = 400 mg in 10 ml PEG 200, 37° C.
[22] = 400 mg in 10 ml PEG 400, 37° C.

Solubility [2]: Dissolved
maximum brought into solution in EtOH [2]: ≤ 200 mg/mL
pH ([2]; 10 mg/ml in ethanol 90%): 3.49
pH ([2]; 20 mg/ml in ethanol 90%): 3.36
pH ([2]; 30 mg/ml in ethanol 90%): 3.30
pH ([2]; 40 mg/ml in ethanol 90%): 3.19
pH ([2]; 50 mg/ml in ethanol 90%): 3.13
pH ([2]; 60 mg/ml in ethanol 90%): 3.11
pH ([2]; 100 mg/ml in ethanol 90%): 3.00
pH ([2]; 200 mg/ml in ethanol 90%): 2.96
directly dissolving the pure substance in diluted PEG [3]: not possible
maximum brought into solution in H2O [4]: < 1 mg/mL
concentration at which moxaverin HCl precipitated after neutralization ([6]; PEG 200, pH 7.4): ≥ 35000 µg/mL
moxaverin concentration achieved in undiluted polyethylene glycol 400 ([6]; undiluted PEG 400, 37° C.): up to 40 mg/ml
SMILES: CCc1cc2cc(OC)c(OC)cc2c(Cc2ccccc2)n1.Cl [moxaverin hydrochloride]
activity of the dissolved moxaverin HCl [1]: active
maximum concentration of moxaverin HCl in aqueous solution ([5]; aqueous solutions having a physiological pH): ≤ 1 mg/mL

time the solutions remained stable without precipitation [8]: more than six months
Solubility at pH 7.4 [6, 11]: Yes
pH [6, 11]: 3.05
Solubility at pH 7.4 [6, 12]: Yes
pH [6, 12]: 2.53
Solubility at pH 7.4 [6, 13]: Yes
pH [6, 13]: 3.06
Solubility at pH 7.4 [6, 14]: Yes
pH [6, 14]: 2.33
Solubility at pH 7.4 [6, 15]: Yes
pH [6, 15]: 2.97
Solubility at pH 7.4 [6, 16]: Yes
pH [6, 16]: 2.27
Solubility at pH 7.4 [6, 17]: Yes
pH [6, 17]: 2.95
Solubility at pH 7.4 [6, 18]: Yes
pH [6, 18]: 2.30
Solubility at pH 7.4 [6, 19]: No
pH [6, 19]: 2.87
Solubility at pH 7.4 [6, 20]: Yes
pH [6, 20]: 2.22
Solubility at pH 7.4 [6, 21]: No
pH [6, 21]: 2.75
Solubility at pH 7.4 [6, 22]: Yes
pH [6, 22]: 2.12
solution behaviour after pH neutralization ([6]; PEG 400, high concentrations, pH 7.4): remained in solution
maximum moxaverin concentration in the finished aqueous medicinal solution ([6]; PEG as solubilizer, upper limit 30% PEG): approximately 12 mg/ml
precipitation on dilution of pH-neutral solutions ([6]; low PEG concentrations of 5% and less): did not precipitate
Solubility ([6]; undiluted polyethylene glycol (PEG), 37 °C, organic solvent or mixture, thermodynamic from solid, undiluted PEG, read-out: maximum solubility in undiluted PEG): ~40 mg/mL (≈ 130 mM)
pain in connection with the injection ([10]; intracavernous injection): No pain was observed
SMILES: CCc1cc2cc(OC)c(OC)cc2c(Cc2ccccc2)n1 [moxaverin, 1-benzyl-3-ethyl-6,7-dimethoxyisoquinoline]
toxicity relative to papaverin [7]: ten times less toxic
solubility in water ([5]; free base, water): < 1 mg/mL
behaviour on dilution with 1×Tyrode's solution ([6]; dissolved in PEG, diluted as desired): without the dissolved moxaverin precipitating
effectiveness as musculotropic spasmolytic relative to parent substance papaverin [9]: 2.5 ×
side effects such as priapism ([10]; intracavernous injection): not observed
cases with sufficiently strong penile erection ([10]; intracavernous, 1 to 10 mg moxaverin hydrochloride in 1 ml, 20 patients): more than 90%
degree of erection E ([10]; scale from 0 to 5, intracavernous injection): 4-5

From patent publication US7645765B2, “Use of moxaverin for treating erectile dysfunction, forms of dementia or diseases associated to an arteriosclerotic occlusion” (Molecular and Clinical Drug Research, priority 2001, dated 2010)
